Test results from patent publication US20110212968A1, “PHENETHYLAMIDE DERIVATIVES AND THEIR HETEROCYCLIC ANALOGUES” (priority 2008, published 2011).

Key:
human orexin-1 receptor = molecular target: T1, human orexin-1 receptor (Homo sapiens, UniProt O43613); assay: Intracellular calcium measurement (FLIPR Tetra), orexin receptor antagonistic activity, OX1; format: cell-based; settings: CHO cells expressing human orexin-1 receptor, 3 nM orexin-A
T1 construct: expressed in transfected cells; host or cells: CHO (Chinese hamster ovary) cells, kept under G418 selection
T1 sequence (O43613 1-425): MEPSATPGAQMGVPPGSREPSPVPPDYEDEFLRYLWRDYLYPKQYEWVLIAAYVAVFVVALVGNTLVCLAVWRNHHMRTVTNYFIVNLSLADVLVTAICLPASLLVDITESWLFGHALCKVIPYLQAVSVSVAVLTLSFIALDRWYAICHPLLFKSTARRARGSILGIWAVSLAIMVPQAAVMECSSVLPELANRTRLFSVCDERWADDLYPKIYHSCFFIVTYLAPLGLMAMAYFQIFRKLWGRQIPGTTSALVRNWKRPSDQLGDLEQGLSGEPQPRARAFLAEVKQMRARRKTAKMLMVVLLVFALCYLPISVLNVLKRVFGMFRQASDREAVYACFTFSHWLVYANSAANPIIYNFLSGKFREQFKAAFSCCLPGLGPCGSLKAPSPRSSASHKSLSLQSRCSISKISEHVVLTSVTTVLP
How it was run: (§1)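 Recombinant CHO cells expressing human OX1 or OX2, loaded with fluo-4 AM plus probenecid, were preincubated with antagonist 10 min, then stimulated with 3 nM human orexin-A. Peak fluorescence was compared with vehicle; IC50 derived, sometimes normalized to an on-plate reference compound; two pipetting/cell-splitting conditions were used.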

human orexin-2 receptor = molecular target: T2, human orexin-2 receptor (Homo sapiens, UniProt O43614); assay: Intracellular calcium measurement (FLIPR Tetra), orexin receptor antagonistic activity, OX2; format: cell-based; settings: CHO cells expressing human orexin-2 receptor, 3 nM orexin-A
T2 construct: expressed in transfected cells; host or cells: CHO (Chinese hamster ovary) cells, kept under G418 selection
T2 sequence (O43614 1-444): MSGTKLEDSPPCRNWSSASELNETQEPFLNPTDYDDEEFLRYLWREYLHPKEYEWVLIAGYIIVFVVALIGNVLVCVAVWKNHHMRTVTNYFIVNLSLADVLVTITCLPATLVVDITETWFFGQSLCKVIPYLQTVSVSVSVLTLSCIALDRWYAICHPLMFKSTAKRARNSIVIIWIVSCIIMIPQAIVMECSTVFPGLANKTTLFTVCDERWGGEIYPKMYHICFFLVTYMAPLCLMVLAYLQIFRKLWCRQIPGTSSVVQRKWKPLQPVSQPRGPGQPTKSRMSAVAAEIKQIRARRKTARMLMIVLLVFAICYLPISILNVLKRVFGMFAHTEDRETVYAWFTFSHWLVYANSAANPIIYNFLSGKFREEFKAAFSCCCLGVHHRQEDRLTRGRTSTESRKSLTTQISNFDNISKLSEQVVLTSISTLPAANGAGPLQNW
How it was run: as §1

[1] = conditions B, normalized (*) using IC50 of on-plate reference compound

Structure (SMILES)	IC50 (human orexin-1 receptor; [1]) [µM]	IC50 (human orexin-2 receptor; [1]) [µM]	other results
Cc1nc(C(=O)N(CCc2ccccc2Cl)CC2CC2)c(-c2ccc(C)c(C)c2)s1 [Example 180, 5-(3,4-Dimethyl-phenyl)-2-methyl-thiazole-4-carboxylic acid [2-(2-chloro-phenyl)-ethyl]-cyclopropylmethyl-amide]			IC50 (human orexin-1 receptor; conditions B): 4.36 µM; IC50 (human orexin-2 receptor; conditions B): 0.24 µM
COc1cccc(-c2cnccc2C(=O)N(CCc2ccc(OC)c(OC)c2)CC2CC2)c1 [Example 389, N-Cyclopropylmethyl-N-[2-(3,4-dimethoxy-phenyl)-ethyl]-3-(3-methoxy-phenyl)-isonicotinamide]			IC50 (human orexin-1 receptor; conditions B): 0.282 µM; IC50 (human orexin-2 receptor; conditions B): 0.006 µM
COc1ccc(CCN(CC2CC2)C(=O)c2sc(C)nc2-c2ccc(F)cc2)cc1OC [Example 50, 4-(4-Fluoro-phenyl)-2-methyl-thiazole-5-carboxylic acid cyclopropylmethyl-[2-(3,4-dimethoxy-phenyl)-ethyl]-amide]			IC50 (human orexin-1 receptor; conditions A): > 10 µM; IC50 (human orexin-2 receptor; conditions A): 0.01 µM
COc1ccc(C(O)CN(CC2CC2)C(=O)c2c(-c3ccccc3)nc3ccc(Cl)cn23)cc1OC (centres unmarked) [Example 97, 6-Chloro-2-phenyl-imidazo[1,2-a]pyridine-3-carboxylic acid cyclopropylmethyl-[2-(3,4-dimethoxy-phenyl)-2-hydroxy-ethyl]-amide]			IC50 (human orexin-1 receptor; conditions A): 4.92 µM; IC50 (human orexin-2 receptor; conditions A): 0.263 µM
COc1ccc(CCN(CC(N)=O)C(=O)c2nc(C)sc2-c2cccc(F)c2)cc1OC [Example 131, 5-(3-Fluoro-phenyl)-2-methyl-thiazole-4-carboxylic acid carbamoylmethyl-[2-(3,4-dimethoxy-phenyl)-ethyl]-amide]			IC50 (human orexin-1 receptor; conditions B): > 10 µM; IC50 (human orexin-2 receptor; conditions B): 0.049 µM
Cc1ccc2[nH]cc(CCN(CC3CC3)C(=O)c3nccnc3-c3ccccc3)c2c1 [Example 324, 3-Phenyl-pyrazine-2-carboxylic acid cyclopropylmethyl-[2-(5-methyl-1H-indol-3-yl)-ethyl]-amide]	0.077	0.008	
COc1ccc(CCN(CC2CC2)C(=O)c2c(-c3ccccc3)nnc3ccccc23)cc1OC [Example 51, 3-Phenyl-cinnoline-4-carboxylic acid cyclopropylmethyl-[2-(3,4-dimethoxy-phenyl)-ethyl]-amide]			IC50 (human orexin-1 receptor; conditions A): 1.44 µM; IC50 (human orexin-2 receptor; conditions A): 0.034 µM
Cc1cccc(-c2sc(N)nc2C(=O)N(CCc2c[nH]c3cc(Cl)ccc23)CC2CC2)c1 [Example 224, 2-Amino-5-m-tolyl-thiazole-4-carboxylic acid [2-(6-chloro-1H-indol-3-yl)-ethyl]-cyclopropylmethyl-amide]			IC50 (human orexin-1 receptor; conditions B): 0.008 µM; IC50 (human orexin-2 receptor; conditions B): 0.026 µM
COc1ccc(CCN(CC2CC2)C(=O)c2nc(N)sc2-c2cccc(C)c2)cc1SC [Example 161, 2-Amino-5-m-tolyl-thiazole-4-carboxylic acid cyclopropylmethyl-[2-(4-methoxy-3-methylsulfanyl-phenyl)-ethyl]-amide]			IC50 (human orexin-1 receptor; conditions B): 0.01 µM; IC50 (human orexin-2 receptor; conditions B): 0.006 µM
COCCOc1cccc(-c2sc(C)nc2C(=O)N(CCc2c[nH]c3ccccc23)CC(=O)OC)c1 [Example 587, ([2-(1H-Indol-3-yl)-ethyl]-{5-[3-(2-methoxy-ethoxy)-phenyl]-2-methyl-thiazole-4-carbonyl}-amino)-acetic acid methyl ester]	0.404	0.038	
COc1ccc2[nH]cc(CCN(CC3CC3)C(=O)c3cnc(C)nc3-c3ccccc3)c2c1C [Example 479, 2-Methyl-4-phenyl-pyrimidine-5-carboxylic acid cyclopropylmethyl-[2-(5-methoxy-4-methyl-1H-indol-3-yl)-ethyl]-amide]	1.38	0.048	
COc1cccc2c(CCN(CC3CC3)C(=O)c3nccnc3-c3cccc(C(F)(F)F)c3)c[nH]c12 [Example 444, 3-(3-Trifluoromethyl-phenyl)-pyrazine-2-carboxylic acid cyclopropylmethyl-[2-(7-methoxy-1H-indol-3-yl)-ethyl]-amide]	6	0.214	
COc1ccc(-c2cccnc2C(=O)N(CCc2c[nH]c3ccc(F)cc23)CC(F)(F)F)cn1 [Example 312]	0.346	0.076	
COc1ccc(C(O)CN(CC2CC2)C(=O)c2nc(N(C)C)sc2-c2cccc(C)c2)cc1OC (centres unmarked) [Example 79, 2-Dimethylamino-5-m-tolyl-thiazole-4-carboxylic acid cyclopropylmethyl-[2-(3,4-dimethoxy-phenyl)-2-hydroxy-ethyl]-amide]			IC50 (human orexin-1 receptor; conditions A): 0.276 µM; IC50 (human orexin-2 receptor; conditions A): 0.158 µM
CCCN(CCc1ccc(OC)c(OC)c1)C(=O)c1nc(C)sc1-c1ccc(C)c(C)c1 [Example 111, 5-(3,4-Dimethyl-phenyl)-2-methyl-thiazole-4-carboxylic acid [2-(3,4-dimethoxy-phenyl)-ethyl]-propyl-amide]			IC50 (human orexin-1 receptor; conditions B): 0.018 µM; IC50 (human orexin-2 receptor; conditions B): 0.002 µM
O=C(c1cncnc1-c1cccc(F)c1)N(CCc1c[nH]c2ccccc12)CC1CC1 [Example 510, 4-(3-Fluoro-phenyl)-pyrimidine-5-carboxylic acid cyclopropylmethyl-[2-(1H-indol-3-yl)-ethyl]-amide]	0.352	0.025	
COc1ccc(-c2sc(C)nc2C(=O)N(CCc2c[nH]c3ccc(F)cc23)CC2CC2)cc1C [Example 410, 5-(4-Methoxy-3-methyl-phenyl)-2-methyl-thiazole-4-carboxylic acid cyclopropylmethyl-[2-(5-fluoro-1H-indol-3-yl)-ethyl]-amide]	3.65	0.145	
CCC(=O)Nc1ccc(-c2sc(C)nc2C(=O)N(CCc2c[nH]c3ccccc23)CC2CC2)cc1 [Example 501, 2-Methyl-5-(4-propionylamino-phenyl)-thiazole-4-carboxylic acid cyclopropylmethyl-[2-(1H-indol-3-yl)-ethyl]-amide]	0.246	0.33	
Cc1ccc(-c2nccnc2C(=O)N(CCc2c[nH]c3c(F)cccc23)CC2CC2)cc1C [Example 340, 3-(3,4-Dimethyl-phenyl)-pyrazine-2-carboxylic acid cyclopropylmethyl-[2-(7-fluoro-1H-indol-3-yl)-ethyl]-amide]	0.099	0.053	
Cc1cccc(-c2sc(N)nc2C(=O)N(CCc2c[nH]c3cc(F)ccc23)CC2CC2)c1 [Example 233, 2-Amino-5-m-tolyl-thiazole-4-carboxylic acid cyclopropylmethyl-[2-(6-fluoro-1H-indol-3-yl)-ethyl]-amide]	0.037	0.022	
Cc1nc(C(=O)N(CCc2c[nH]c3ccc(F)cc23)CC2CC2)c(-c2ccc(C#N)c(F)c2)s1 [Example 419, 5-(4-Cyano-3-fluoro-phenyl)-2-methyl-thiazole-4-carboxylic acid cyclopropylmethyl-[2-(5-fluoro-1H-indol-3-yl)-ethyl]-amide]	2.51	0.1	
COc1ccc(CCN(CC2CC2)C(=O)c2nc(C)sc2-c2ccc(C)c(C)c2)cn1 [Example 254, 5-(3,4-Dimethyl-phenyl)-2-methyl-thiazole-4-carboxylic acid cyclopropylmethyl-[2-(6-methoxy-pyridin-3-yl)-ethyl]-amide]			IC50 (human orexin-1 receptor; conditions B): 1.77 µM; IC50 (human orexin-2 receptor; conditions B): 0.232 µM
CN(C)c1cccc(-c2ocnc2C(=O)N(CCc2c[nH]c3ccc(F)cc23)CC2CC2)c1 [Example 261, 5-(3-Dimethylamino-phenyl)-oxazole-4-carboxylic acid cyclopropylmethyl-[2-(5-fluoro-1H-indol-3-yl)-ethyl]-amide]	0.576	0.185	
COc1ccc(CCN(CC2CC2)C(=O)c2nc(C)oc2-c2cccc(C(F)(F)F)c2)cc1OC [Example 43, 2-Methyl-5-(3-trifluoromethyl-phenyl)-oxazole-4-carboxylic acid cyclopropylmethyl-[2-(3,4-dimethoxy-phenyl)-ethyl]-amide]			IC50 (human orexin-1 receptor; conditions A): 3.12 µM; IC50 (human orexin-2 receptor; conditions A): 0.018 µM
Cc1nc(C(=O)N(CCc2c[nH]c3ccc(F)cc23)CC2CC2)c(-c2ccc(F)c(CO)c2)s1 [Example 418, 5-(4-Fluoro-3-hydroxymethyl-phenyl)-2-methyl-thiazole-4-carboxylic acid cyclopropylmethyl-[2-(5-fluoro-1H-indol-3-yl)-ethyl]-amide]	0.148	0.013	
